Like-named read-outs stand apart in the source and are kept apart here. No end group written: not given here.
What was measured:
E. coli W3110 [1] = assay: Time-killing kinetic assay, E. coli; assay type: cell-based, Escherichia coli; conditions: 8× MIC, full MHB pH 7.4, 0-6 h, n = 6
Method: (§1) Time-Killing Kinetic Assay
(§2) Single colonies of E. coli W3110 and K. pneumoniae NCTC418 were picked and grown overnight with shaking (180 rpm) in LB (Sigma-Aldrich, Buchs, Switzerland) medium 5 mL overnight at 37 °C. The overnight bacterial cultures were diluted to OD600 = 0.002 (2 × 10^6 CFU/mL) in fresh MHB medium. Stock solutions of AMPs in sterilized milliQ water were prepared in 1 mg/mL and were diluted to two times more than required concentration in fresh MHB (Sigma- Aldrich, Buchs, Switzerland) medium at pH 7.4. 100 μL of prepared bacteria solution in MHB and 100 μL of samples in MHB were mixed in a 96-well microtiter plate (TPP, untreated, Corning Incorporated, Kennebunk, USA). Untreated bacteria at 1 × 10^6 CFU/mL were used as a growth control. 96-well microtiter plates were incubated in 37 °C with shaking (180 rpm). Surviving bacteria were quantified at 0, 0.5, 1, 2, 4 and 6 h by plating 10 -fold dilutions of the sample in sterilized normal saline on LB agar plates. LB agar plates were incubated at 37 °C for 10 h, and the number of individual colonies was counted at each time point. The assay was performed in triplicate in a biosafety level 2 lab. […]

[2] = test system: E. coli ribosome, U2506 of the 23S rRNA; assay: Ribosome footprinting (CMCT modification of U2506); assay type: binding; conditions: 1 μM peptide, 10.5 μM CMCT, purified E. coli ribosomes (5 pmol), 25 °C; primer extension, sequencing gel
Method: A 5 mL culture of E. coli MG1655 (WT-cells) was grown in LB overnight (220 rpm, 37 °C). One liter LB medium was inoculated, and bacteria were grown to OD = 0.6 (220 rpm. 37 °C); cells were centrifuged in centrifuge bottles, and the pellet was resuspended in ice-cold water and transferred in 50 mL falcon tubes. Falcon tubes were centrifuged, the supernatant was removed, the pellet was resuspended in 15 mL polysome buffer (TRIS/HCl pH 7.5 20 mM, NH4Cl 100 mM, MgCl2 10 mM, EDTA 0.5 mM, β-mercaptoethanol 60 mM), frozen dropwise in N2 (l), and stored at −80 °C. The cells were ground in CryoMil with the standard program (1 min precooling, 2 min grinding 5/s, 2 min cooling, 2 min grinding 5/s). The powder was transferred in 50 mL falcon tubes containing N2 (l) and stored at −80 °C. The lysates were thawed with a water bath (30 °C), put on ice, transferred to precooled Eppendorf tubes, and centrifuged (5000 g, 2 min, 4 °C). The clear lysate was transferred to new precooled tubes, centrifuged (14 000 g, 10 min, 4 °C), and the supernatant was transferred to new precooled tubes. 300 mL of clear lysate was loaded on a 10–50% sucrose gradient in CMCT buffer (K-borate buffer pH 8 80 mM, MgCl2 25 mM, NH4Cl 100 mM) and ultracentrifuged (3 h, 234 050 g, 4 °C). The fractions containing monosomes and polysomes were collected and ultracentrifuged overnight (16 h, 260 800 g, 4 °C). The supernatant was discarded, and the pellet was washed with ice-cold CMCT buffer. The ribosomes were resuspended in 100 μL CMCT buffer with a mini magnetic stirring bar and stored on ice. The concentration of ribosomes was measured in 1/200 dilution in water.
Ribosomes (5 pmol) were mixed with 8 μL of CMCT buffer, the compound of interest 1 μM, and water to a final volume of 20 μL in a precooled tube and incubated at 25 °C for 10 min. 20 μL of CMCT (10.5 μM) in water was added and incubated at 25 °C for 30 min. The reaction was stopped with 160 μL of EDTA (30 μM), and the samples were stored on ice.
160 μL portion of RNA resuspension buffer and 40 μL of 10% SDS were added, and the samples were vigorously resuspended. 400 μL of prewarmed acid phenol was added, and the samples were incubated on a thermomixer (5 min, 1200 rpm, 65 °C). The samples were put on ice for 5 min and centrifuged (5 min, 14 000 g, RT). The watery phase was transferred to a new precooled tube, 400 μL of phenol–chloroform–isoamyl alcohol (4 °C) was added, and the samples were mixed (5 min, 1200 rpm, RT). The samples were centrifuged again (5 min, 14 000g, RT), and the watery phase was transferred to another precooled tube. 34 μL of 3 M NaOAc pH 5.5, 0.8 μL of Glycoblue and 400 μL of isopropanol were added, and the samples were incubated for 3 h at −80 °C. The samples were then centrifuged (40 min, 21 000g, 4 °C), and the pellet was washed with ice-cold 70% EtOH. The residual liquid was removed, and the samples were dried (5 min, 37 °C). The samples were resuspended in 20 μL of water, the concentration was measured, and the samples were −80 °C.
Primers designed to probe the positions 2506 of the 23S rRNA (5-[sequence]-3′) were labeled with radioactive phosphate (γ^32 P-ATP). […] To prepare primers for one reaction, 1 μL of primer (0.3 μM), 0.4 μL of 5× PNK-buffer, 0.25 μL of water, 0.2 μL of γ^32 P-ATP, and 0.15 μL of T4 PNK were mixed and incubated at 37 °C.

S. aureus COL (MRSA) = assay: microbe, parasite or virus in culture; conditions: for MIC S. aureus, 12.5% MHB / MIC S. aureus, Full MHB: S. aureus COL (MRSA), 16–20 h at 37 °C; for MIC S. aureus, 12.5% MHB: 12.5% Müller–Hinton medium; for MIC S. aureus, Full MHB: full Müller–Hinton medium; for MIC S. aureus COL (MRSA): supplement CSV
How it was run: (§3)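 Read-out was visible growth after MTT addition, the MIC being the lowest inhibitory peptide concentration. Bacteria grown to log phase in LB were exposed in MH medium to peptide from 64 μg/mL in twofold dilutions for 15-18h at 37°C.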

K. pneumoniae NCTC 418 = assay: microbe, parasite or virus in culture; conditions: for MIC K. pneumoniae, 12.5% MHB / MIC K. pneumoniae, Full MHB: K. pneumoniae NCTC 418, 16–20 h at 37 °C; for MIC K. pneumoniae, 12.5% MHB: 12.5% Müller–Hinton medium; for MIC K. pneumoniae, Full MHB: full Müller–Hinton medium; for MIC K. pneumoniae NCTC418: supplement CSV
How it was run: as §3

E. coli W3110 [3] = assay: microbe, parasite or virus in culture; conditions: for MIC E. coli, 12.5% MHB / MIC E. coli, Full MHB: E. coli W3110, 16–20 h at 37 °C, broth microdilution; for MIC E. coli, 12.5% MHB: 12.5% Müller–Hinton medium; for MIC E. coli, Full MHB: full Müller–Hinton medium; for MIC E. coli W3110: supplement CSV
How it was run: as §3

P. aeruginosa PAO1 = assay: microbe, parasite or virus in culture; conditions: for MIC P. aeruginosa, 12.5% MHB / MIC P. aeruginosa, Full MHB: P. aeruginosa PAO1, 16–20 h at 37 °C; for MIC P. aeruginosa, 12.5% MHB: 12.5% Müller–Hinton medium; for MIC P. aeruginosa, Full MHB: full Müller–Hinton medium; for MIC P. aeruginosa PAO1: supplement CSV
How it was run: as §3

A. baumannii ATCC19606 = assay: microbe, parasite or virus in culture; conditions: for MIC A. baumannii, 12.5% MHB / MIC A. baumannii, Full MHB: A. baumannii ATCC19606, 16–20 h at 37 °C; for MIC A. baumannii, 12.5% MHB: 12.5% Müller–Hinton medium; for MIC A. baumannii, Full MHB: full Müller–Hinton medium; for MIC A. baumannii ATCC19606: supplement CSV
How it was run: as §3

K. pneumoniae NCTC418 = assay: Time-killing kinetic assay, K. pneumoniae; assay type: cell-based, Klebsiella pneumoniae; conditions: 8× MIC, full MHB pH 7.4, 0-6 h, n = 6
Method: as §1, §2

[4] = test system: P. aeruginosa PA14 4.13 (phoQ); conditions: for MIC P. aeruginosa PA14 4.13 (phoQ), 12.5% MHB / MIC P. aeruginosa PA14 4.13 (phoQ), full MHB: polymyxin B resistant strain, 16–20 h at 37 °C; for MIC P. aeruginosa PA14 4.13 (phoQ), 12.5% MHB: 12.5% MHB pH 7.4; for MIC P. aeruginosa PA14 4.13 (phoQ), full MHB: full MHB pH 7.4; for MIC P. aeruginosa PA14 4.13: supplement CSV

Sequence: VDKPPYLPRPRPPRRIYNR [sr5Cterm-Onc] (VDKPPYLPRPRPPRRIYNR-NH2; also: residues 15-19 stereorandomized (1:1 L/D mixture))
- Killing profile against E. coli (E. coli W3110 [1]): comparable kinetics to L-Onc
- Protection of U2506 of 23S rRNA from CMCT modification (band at C2507) [2]: protected from CMCT modification
- MIC S. aureus, 12.5% MHB (S. aureus COL (MRSA)): > 16 µg/mL
- MIC S. aureus, Full MHB (S. aureus COL (MRSA)): > 64 µg/mL
- MIC S. aureus COL (MRSA) (S. aureus COL (MRSA); 12.5% MH pH 7.4): >16 µg/mL
- MIC S. aureus COL (MRSA) (S. aureus COL (MRSA); full MH pH 7.4): >64 µg/mL
- MIC K. pneumoniae, 12.5% MHB (K. pneumoniae NCTC 418): 2 / 2 μg/mL
- MIC K. pneumoniae, Full MHB (K. pneumoniae NCTC 418): 2 / 2 μg/mL
- MIC K. pneumoniae NCTC418 (K. pneumoniae NCTC 418; 12.5% MH pH 7.4): 2 µg/mL
- MIC K. pneumoniae NCTC418 (K. pneumoniae NCTC 418; full MH pH 7.4): 2 µg/mL
- MIC E. coli, 12.5% MHB (E. coli W3110 [3]): 2 µg/mL
- MIC E. coli, Full MHB (E. coli W3110 [3]): 4 µg/mL
- MIC E. coli W3110 (E. coli W3110 [3]; 12.5% MH pH 7.4): 2 µg/mL
- MIC E. coli W3110 (E. coli W3110 [3]; full MH pH 7.4): 4 µg/mL
- MIC P. aeruginosa, 12.5% MHB (P. aeruginosa PAO1): 8 µg/mL
- MIC P. aeruginosa, Full MHB (P. aeruginosa PAO1): 64 µg/mL
- MIC P. aeruginosa PAO1 (P. aeruginosa PAO1; 12.5% MH pH 7.4): 8 µg/mL
- MIC P. aeruginosa PAO1 (P. aeruginosa PAO1; full MH pH 7.4): 64 µg/mL
- MIC A. baumannii, 12.5% MHB (A. baumannii ATCC19606): 4 µg/mL
- MIC A. baumannii, Full MHB (A. baumannii ATCC19606): 32 µg/mL
- MIC A. baumannii ATCC19606 (A. baumannii ATCC19606; 12.5% MH pH 7.4): 4 µg/mL
- MIC A. baumannii ATCC19606 (A. baumannii ATCC19606; full MH pH 7.4): 32 µg/mL
- Killing profile against K. pneumoniae (K. pneumoniae NCTC418): comparable kinetics to L-Onc
- MIC P. aeruginosa PA14 4.13 (phoQ), 12.5% MHB [4]: 8 µg/mL
- MIC P. aeruginosa PA14 4.13 (phoQ), full MHB [4]: 64 µg/mL
- MIC P. aeruginosa PA14 4.13 ([4]; 12.5% MH pH 7.4): 8 µg/mL
- MIC P. aeruginosa PA14 4.13 ([4]; full MH pH 7.4): 64 µg/mL

Sequence: VDKPPYLPRPRPPRRIYNR [sr8Cterm-Onc] (VDKPPYLPRPRPPRRIYNR-NH2; also: residues 12-19 stereorandomized (1:1 L/D mixture))
- Killing profile against E. coli (E. coli W3110 [1]): comparable kinetics to L-Onc
- Protection of U2506 of 23S rRNA from CMCT modification (band at C2507) [2]: protected from CMCT modification
- MIC S. aureus, 12.5% MHB (S. aureus COL (MRSA)): > 16 µg/mL
- MIC S. aureus, Full MHB (S. aureus COL (MRSA)): > 64 µg/mL
- MIC S. aureus COL (MRSA) (S. aureus COL (MRSA); 12.5% MH pH 7.4): >16 µg/mL
- MIC S. aureus COL (MRSA) (S. aureus COL (MRSA); full MH pH 7.4): >64 µg/mL
- MIC K. pneumoniae, 12.5% MHB (K. pneumoniae NCTC 418): 2 µg/mL
- MIC K. pneumoniae, Full MHB (K. pneumoniae NCTC 418): 4 µg/mL
- MIC K. pneumoniae NCTC418 (K. pneumoniae NCTC 418; 12.5% MH pH 7.4): 2 µg/mL
- MIC K. pneumoniae NCTC418 (K. pneumoniae NCTC 418; full MH pH 7.4): 4 µg/mL
- MIC E. coli, 12.5% MHB (E. coli W3110 [3]): 4 µg/mL
- MIC E. coli, Full MHB (E. coli W3110 [3]): 8 µg/mL
- MIC E. coli W3110 (E. coli W3110 [3]; 12.5% MH pH 7.4): 4 µg/mL
- MIC E. coli W3110 (E. coli W3110 [3]; full MH pH 7.4): 8 µg/mL
- MIC P. aeruginosa, 12.5% MHB (P. aeruginosa PAO1): 8 µg/mL
- MIC P. aeruginosa, Full MHB (P. aeruginosa PAO1): 64 µg/mL
- MIC P. aeruginosa PAO1 (P. aeruginosa PAO1; 12.5% MH pH 7.4): 8 µg/mL
- MIC P. aeruginosa PAO1 (P. aeruginosa PAO1; full MH pH 7.4): 64 µg/mL
- MIC A. baumannii, 12.5% MHB (A. baumannii ATCC19606): 4 µg/mL
- MIC A. baumannii, Full MHB (A. baumannii ATCC19606): 32 µg/mL
- MIC A. baumannii ATCC19606 (A. baumannii ATCC19606; 12.5% MH pH 7.4): 4 µg/mL
- MIC A. baumannii ATCC19606 (A. baumannii ATCC19606; full MH pH 7.4): 32 µg/mL
- Killing profile against K. pneumoniae (K. pneumoniae NCTC418): comparable kinetics to L-Onc
- MIC P. aeruginosa PA14 4.13 (phoQ), 12.5% MHB [4]: 8 µg/mL
- MIC P. aeruginosa PA14 4.13 (phoQ), full MHB [4]: 64 µg/mL
- MIC P. aeruginosa PA14 4.13 ([4]; 12.5% MH pH 7.4): 8 µg/mL
- MIC P. aeruginosa PA14 4.13 ([4]; full MH pH 7.4): 64 µg/mL

Sequence: VDKPPYLPRPRPPRRIYNR [sr9Cterm-Onc] (VDKPPYLPRPRPPRRIYNR-NH2; also: residues 11-19 stereorandomized (1:1 L/D mixture))
- Killing profile against E. coli (E. coli W3110 [1]): comparable kinetics to L-Onc
- Protection of U2506 of 23S rRNA from CMCT modification (band at C2507) [2]: protected from CMCT modification
- MIC S. aureus, 12.5% MHB (S. aureus COL (MRSA)): 32 µg/mL
- MIC S. aureus, Full MHB (S. aureus COL (MRSA)): > 64 µg/mL
- MIC S. aureus COL (MRSA) (S. aureus COL (MRSA); 12.5% MH pH 7.4): 32 µg/mL
- MIC S. aureus COL (MRSA) (S. aureus COL (MRSA); full MH pH 7.4): >64 µg/mL
- MIC K. pneumoniae, 12.5% MHB (K. pneumoniae NCTC 418): 4 / 4 μg/mL
- MIC K. pneumoniae, Full MHB (K. pneumoniae NCTC 418): 4 / 4 μg/mL
- MIC K. pneumoniae NCTC418 (K. pneumoniae NCTC 418; 12.5% MH pH 7.4): 4 µg/mL
- MIC K. pneumoniae NCTC418 (K. pneumoniae NCTC 418; full MH pH 7.4): 4 µg/mL
- MIC E. coli, 12.5% MHB (E. coli W3110 [3]): 4 µg/mL
- MIC E. coli, Full MHB (E. coli W3110 [3]): 8 µg/mL
- MIC E. coli W3110 (E. coli W3110 [3]; 12.5% MH pH 7.4): 4 µg/mL
- MIC E. coli W3110 (E. coli W3110 [3]; full MH pH 7.4): 8 µg/mL
- MIC P. aeruginosa, 12.5% MHB (P. aeruginosa PAO1): 8 µg/mL
- MIC P. aeruginosa, Full MHB (P. aeruginosa PAO1): 64 µg/mL
- MIC P. aeruginosa PAO1 (P. aeruginosa PAO1; 12.5% MH pH 7.4): 8 µg/mL
- MIC P. aeruginosa PAO1 (P. aeruginosa PAO1; full MH pH 7.4): 64 µg/mL
- MIC A. baumannii, 12.5% MHB (A. baumannii ATCC19606): 4 µg/mL
- MIC A. baumannii, Full MHB (A. baumannii ATCC19606): 32 µg/mL
- MIC A. baumannii ATCC19606 (A. baumannii ATCC19606; 12.5% MH pH 7.4): 4 µg/mL
- MIC A. baumannii ATCC19606 (A. baumannii ATCC19606; full MH pH 7.4): 32 µg/mL
- Killing profile against K. pneumoniae (K. pneumoniae NCTC418): comparable kinetics to L-Onc
- MIC P. aeruginosa PA14 4.13 (phoQ), 12.5% MHB [4]: 8 µg/mL
- MIC P. aeruginosa PA14 4.13 (phoQ), full MHB [4]: 64 µg/mL
- MIC P. aeruginosa PA14 4.13 ([4]; 12.5% MH pH 7.4): 8 µg/mL
- MIC P. aeruginosa PA14 4.13 ([4]; full MH pH 7.4): 64 µg/mL

— publication PMC11571207, “Stereorandomized Oncocins with Preserved Ribosome Binding and Antibacterial Activity” (Journal of Medicinal Chemistry, 2024)
